ChEMBL document CHEMBL5634148, “Synthesis and evaluation of novel pleuromutilin derivatives targeting the 50S ribosomal subunit for antibacterial ability” (Eur J Med Chem, 2023)
Values after ≈ are worked out from the molar mass of the structure shown. Active and inactive are the calls of the source. The calls are words filed in the database; no cut-off is given here.

Experiments:
[1] = test system: Staphylococcus aureus; experiment: Antibacterial activity against methicillin-resistant Staphylococcus aureus BNCC 337371 assessed as bacterial growth inhibition incubated for 18 to 24 hrs by NCCLS based assay; assay type: functional; settings: time 18-24 hrs
[2] = test system: Staphylococcus aureus; experiment: Antibacterial activity against methicillin-resistant Staphylococcus aureus infected in neutropenic Balb/c mouse model assessed as reduction in bacterial load in liver at 40 mg/kg, iv measured after 5 days; assay type: functional, organism-based; settings: time 5.0 day
[3] = Toxicity in Wistar rat assessed as relative spleen weight at 2000 mg/kg, po measured after 14 days (reference value: 0.20 +/- 0.07 %); assay type: organism-based; settings: in vivo, 336 h, time 14 day
[4] = test system: Staphylococcus aureus; experiment: Drug resistance against Staphylococcus aureus assessed as fold increase in MIC measured after 21 passages relative to control; assay type: functional
[5] = Toxicity in Wistar rat assessed as relative liver weight at 2000 mg/kg, po measured after 14 days (reference value: 4.37 +/- 0.18 %); assay type: organism-based; settings: in vivo, 336 h, time 14 day
[6] = Toxicity in Wistar rat assessed as capillary congestion in lungs at 2000 mg/kg, po measured for 14 days by H and E staining based analysis; assay type: organism-based; settings: in vivo, 336 h, time 14 day
[7] = Toxicity in Wistar rat assessed as proliferation of oval cells in liver at 2000 mg/kg, po measured for 14 days by H and E staining based analysis; assay type: organism-based; settings: in vivo, 336 h, time 14 day
[8] = Toxicity in Wistar rat assessed as vascular congestion in lungs at 2000 mg/kg, po measured for 14 days by H and E staining based analysis; assay type: organism-based; settings: in vivo, 336 h, time 14 day
[9] = test system: Staphylococcus aureus; experiment: Antibacterial activity against Staphylococcus aureus ATCC 25923 assessed as bacterial growth inhibition incubated for 18 to 24 hrs by NCCLS based assay; assay type: functional; settings: time 18-24 hrs
[10] = Toxicity in Wistar rat assessed as relative uterus weight at 2000 mg/kg, po measured after 14 days (reference value: 0.45 +/- 0.03 %); assay type: organism-based; settings: in vivo, 336 h, time 14 day
[11] = Toxicity in Wistar rat assessed as physical activity at 2000 mg/kg, po measured for 48 hrs; assay type: organism-based; settings: in vivo
[12] = Cytotoxicity against HEK293T cells assessed as cell viability incubated for 6 hrs by CCK8 assay; assay type: toxicity, cell-based, HEK-293T; settings: human
[13] = Toxicity in Wistar rat assessed as water consumption at 2000 mg/kg, po measured for 14 days; assay type: organism-based; settings: in vivo, 336 h, time 14 day
[14] = test system: Staphylococcus aureus; experiment: Antibacterial activity against methicillin-resistant Staphylococcus aureus infected in neutropenic Balb/c mouse model assessed as reduction in bacterial load in lungs at 15 mg/kg, iv measured after 5 days; assay type: functional; settings: time 5 day
[15] = Toxicity in Wistar rat assessed as degeneration of alveolar epithelial cells in lungs at 2000 mg/kg, po measured for 14 days by H and E staining based analysis; assay type: organism-based; settings: in vivo, 336 h, time 14 day
[16] = test system: Staphylococcus aureus; experiment: Drug sensitivity against Staphylococcus aureus at 1/4 times MIC measured after 4 passages; assay type: functional, organism-based
[17] = test system: Staphylococcus epidermidis; experiment: Antibacterial activity against methicillin-resistant Staphylococcus epidermidis ATCC 51625 assessed as bacterial growth inhibition incubated for 18 to 24 hrs by NCCLS based assay; assay type: functional; settings: time 18-24 hrs
[18] = Toxicity in Wistar rat assessed as absolute lungs weight at 2000 mg/kg, po measured after 14 days (reference value: 1.38 +/- 0.17 g); assay type: organism-based; settings: in vivo, 336 h, time 14 day
[19] = test system: Pasteurella multocida; experiment: Antibacterial activity against Pasteurella multocida CVCC 1659 assessed as bacterial growth inhibition incubated for 18 to 24 hrs by NCCLS based assay; assay type: functional; settings: time 18-24 hrs
[20] = test system: Staphylococcus aureus; experiment: Antibacterial activity against methicillin-resistant Staphylococcus aureus ATCC 29213 assessed as reduction in bacterial count at 6 times MIC incubated for 24 hrs by time kill assay; assay type: functional
[21] = Toxicity in Wistar rat assessed as physical activity at 2000 mg/kg, po measured for 24 hrs; assay type: organism-based; settings: in vivo
[22] = Toxicity in Wistar rat assessed as absolute heart weight at 2000 mg/kg, po measured after 14 days (reference value: 0.86 +/- 0.09 g); assay type: organism-based; settings: in vivo, 336 h, time 14 day
[23] = Toxicity in Wistar rat assessed as absolute liver weight at 2000 mg/kg, po measured after 14 days (reference value: 10.02 +/- 0.44 g); assay type: organism-based; settings: in vivo, 336 h, time 14 day
[24] = Toxicity in neutropenic Balb/c mouse model infected with methicillin-resistant Staphylococcus aureus assessed as animal survival at 40 mg/kg, iv measured for 7 days; assay type: organism-based; settings: in vivo, 168 h, time 7 day
[25] = Toxicity in Wistar rat assessed as absolute uterus weight at 2000 mg/kg, po measured after 14 days (reference value: 0.87 +/- 0.06 g); assay type: organism-based; settings: in vivo, 336 h, time 14 day
[26] = Cytotoxicity against human HepG2 cells assessed as cell viability at 200 uM incubated for 6 hrs by CCK8 assay relative to control; assay type: toxicity, cell-based; settings: read-out: Activity
[27] = test system: Staphylococcus aureus; experiment: Antibacterial activity against methicillin-resistant Staphylococcus aureus infected in neutropenic Balb/c mouse model assessed as reduction in bacterial load in lungs at 40 mg/kg, iv measured after 5 days; assay type: functional; settings: time 5 day
[28] = Cytotoxicity against HEK293T cells assessed as cell viability at 200 uM incubated for 6 hrs by CCK8 assay relative to control; assay type: toxicity, cell-based, HEK-293T; settings: human, read-out: Activity
[29] = Toxicity in Wistar rat assessed as trembling at 2000 mg/kg, po measured for 24 hrs; assay type: organism-based; settings: in vivo
[30] = Toxicity in Wistar rat assessed as piloerection at 2000 mg/kg, po measured for 24 hrs; assay type: organism-based; settings: in vivo
[31] = test system: Streptococcus agalactiae; experiment: Antibacterial activity against Streptococcus agalactiae assessed as bacterial growth inhibition incubated for 18 to 24 hrs by NCCLS based assay; assay type: functional; settings: time 18-24 hrs
[32] = Toxicity in po-dosed Wistar rat measured for 14 days by H and E staining based analysis; settings: in vivo, time 14 day
[33] = test system: Staphylococcus aureus; experiment: Bactericidal activity against Staphylococcus aureus incubated for 24 hrs by time kill assay; assay type: functional, organism-based
[34] = Toxicity in Wistar rat assessed as food intake at 2000 mg/kg, po measured for 14 days; assay type: organism-based; settings: in vivo, 336 h, time 14 day
[35] = Toxicity in Wistar rat assessed as body weight loss at 2000 mg/kg, po measured for 14 days; assay type: organism-based; settings: in vivo, 336 h, time 14 day
[36] = test system: Staphylococcus aureus; experiment: Antibacterial activity against methicillin-resistant Staphylococcus aureus infected in neutropenic Balb/c mouse model assessed as reduction in inflammatory cell infiltration in lungs at 40 mg/kg, iv measured after 5 days; assay type: functional, organism-based; settings: time 5.0 day
[37] = test system: Staphylococcus aureus; experiment: Antibacterial activity against Staphylococcus aureus assessed as reduction in bacterial count at 1 to 6 times MIC incubated for 24 hrs by time kill assay; assay type: functional
[38] = Toxicity in Wistar rat assessed as trembling at 2000 mg/kg, po measured for 48 hrs; assay type: organism-based; settings: in vivo
[39] = test system: Staphylococcus aureus; experiment: Antibacterial activity against methicillin-resistant Staphylococcus aureus infected in neutropenic Balb/c mouse model assessed as reduction in bacterial load in kidney at 40 mg/kg, iv measured after 5 days; assay type: functional, organism-based; settings: time 5.0 day
[40] = Toxicity in Wistar rat assessed as piloerection at 2000 mg/kg, po measured for 48 hrs; assay type: organism-based; settings: in vivo
[41] = Toxicity in Wistar rat assessed as congestion in hepatic central vein at 2000 mg/kg, po measured for 14 days by H and E staining based analysis; assay type: organism-based; settings: in vivo, 336 h, time 14 day
[42] = Cytotoxicity against human HepG2 cells assessed as cell viability incubated for 6 hrs by CCK8 assay; assay type: toxicity, cell-based
[43] = test system: Staphylococcus aureus; experiment: Bactericidal activity against methicillin-resistant Staphylococcus aureus ATCC 29213 incubated for 24 hrs by time kill assay; assay type: functional, organism-based

## C=C[C@]1(C)C[C@@H](OC(=O)CSc2ncnc(N(C)C)n2)[C@]2(C)[C@H](C)CC[C@]3(CCC(=O)[C@H]32)[C@@H](C)[C@@H]1O
[1]
  MIC: 0.031 mg/L (≈ 0.06 µM)
[2]
  Activity: Active
[3]
  Activity: 0.26%
[4]
  fold change (FC): 16
[5]
  Activity: 3.99%
[6]
  Activity: Toxic
[7]
  Activity: Toxic
[8]
  Activity: Toxic
[9]
  MIC: 0.031 mg/L (≈ 0.06 µM)
[10]
  Activity: 0.29%
[11]
  Activity: Non-Toxic
[12]
  CC50 at 6 h: 50.1 µM
[13]
  Activity: Toxic
[14]
  Activity: 1.82 log10CFU/ml
[15]
  Activity: Toxic
[16]
  Activity: Active
[17]
  MIC: 0.125 mg/L (≈ 0.242 µM)
[18]
  Activity: 1.21 g
[19]
  MIC: ≥ 64 mg/L
[20]
  log(activity): 1.72
[21]
  Activity: Toxic
[22]
  Activity: 0.75 g
[23]
  Activity: 9.09 g
[24]
  Activity: 70%
[25]
  Activity: 0.68 g
[26]
  viability at 6 h, 200 µM: 60.2%
[27]
  Activity: 2.52 log10CFU/ml
[28]
  viability at 6 h, 200 µM: 66.9%
[29]
  Activity: Toxic
[30]
  Activity: Toxic
[31]
  MIC: 0.063 mg/L (≈ 0.122 µM)
[32]
  LD50 at 336 h: > 2000 mg/kg
[33]
  Activity: Dose-Dependent Effect
[34]
  Activity: Toxic
[35]
  Activity: Toxic
[36]
  Activity: Active
[37]
  log(activity): 2.5
[38]
  Activity: Non-Toxic
[39]
  Activity: Active
[40]
  Activity: Non-Toxic
[41]
  Activity: Toxic
[42]
  CC50 at 6 h: 84.6 µM
[43]
  Activity: Dose-Dependent Effect
